Reference: US20230174584A1, “Antibiotic Compounds” (priority 2019, published 2023)
Values after ≈ are worked out from the molar mass of the structure shown. Where two headings read alike, the source gives them in different places.

Legend:
[1] = system: E. faecium E0341; assay: MIC assay; format: cell-based, Enterococcus faecium
[2] = system: E. faecium E0745; assay: MIC assay; format: cell-based, Enterococcus faecium
Procedure, shortened: (§1)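 Broth microdilution per CLSI in TSB with 0.002% polysorbate 80; 2-fold compound series mixed with an equal volume of 10^6 CFU/mL inoculum, then 24 h at 37 °C with 600 rpm shaking. MIC in μg/mL is the median of at least triplicates.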

[3] = system: E. faecium E2365; assay: MIC assay; format: cell-based, Enterococcus faecium
Procedure, shortened: as §1

[4] = system: E. faecium E0072; assay: MIC assay; format: cell-based, Enterococcus faecium
Procedure, shortened: as §1

[5] = system: E. faecalis E1246; assay: MIC assay; format: cell-based, Enterococcus faecalis
Procedure, shortened: as §1

[6] = system: E. faecium E2359; assay: MIC assay; format: cell-based, Enterococcus faecium
[7] = system: E. faecium E7312; assay: MIC assay; format: cell-based, Enterococcus faecium
[8] = system: Escherichia coli ATCC 25922; assay: MIC assay; format: cell-based
Procedure, shortened: as §1

[9] = system: Escherichia coli ATCC 35218; assay: MIC assay; format: cell-based
Procedure, shortened: as §1

[10] = system: Klebsiella pneumoniae JS265; assay: MIC assay; format: cell-based
Procedure, shortened: as §1

[11] = system: S. pneumoniae 153; assay: MIC assay; format: cell-based
Procedure, shortened: as §1

[12] = system: Escherichia coli W3110; assay: MIC assay; format: cell-based
Procedure, shortened: as §1

[13] = system: Klebsiella pneumoniae ATCC 27736; assay: MIC assay; format: cell-based
Procedure, shortened: as §1

[14] = system: Klebsiella pneumoniae ATCC 13883; assay: MIC assay; format: cell-based
Procedure, shortened: as §1

[15] = system: S. aureus ATCC29123; assay: Lipid II antagonization assay; format: cell-based, Staphylococcus aureus; settings: for visible bacterial growth with lipid II / visible bacterial growth without lipid II: 8×MIC of test compound, 24 h; for visible bacterial growth with lipid II: 5-fold molar excess of lipid II; as to visible bacterial growth with lipid II: key: − means no visible growth; + means visible growth; as to visible bacterial growth without lipid II: key: − means no visible growth; + means visible growth
Experimental: Lipid II in chloroform was added in the appropriate amount (5-fold molar excess compared to test antibiotics) to a 96-well plate and the chloroform was allowed to evaporate. […] Of these dilutions, 50 μL was mixed with the 5-fold molar excess of pure lipid II in triplicates in the plate as well as added to the plate in triplicates without lipid II present. S. aureus ATCC29123 colonies were suspended in TSB with 0.002% p80 by direct colony suspension to an optical density that reached a level equivalent to the 0.5 McFarlan standard. […] The samples were incubated at 37° C. for 24 h with constant shaking (600 rpm) and inspected for visible bacterial growth. Positive growth control consisted of wells with bacterial suspension and without antibiotic or lipid II. Negative growth control consisted of solely media without bacterial suspension, antibiotic or lipid II.
In the antagonization assay, lipid II is co-incubated with the test antibiotics in the presence of bacterial culture. When lipid II binds the glycopeptides, the binding of these antibiotics to their target in the growing bacterial culture is antagonized. This ultimately results in diminished activity of the antibiotics and bacterial growth which normally would not be visible (at 8×MIC) becomes visible. Therefore, this assay could be used to determine if part of the mechanism of action of our compounds involves binding to lipid II.

[16] = E. faecalis E1246 VRE (vanA), Table 9

Row | Structure (SMILES) | MIC [5, 16] | MIC [9] | visible bacterial growth with lipid II [15] | visible bacterial growth without lipid II [15] | MIC ([1]; Enterococcus faecium, E0341) | MIC ([2]; Enterococcus faecium, E0745) | MIC ([3]; Enterococcus faecium, E2365) | MIC ([4]; Enterococcus faecium, E0072) | MIC ([5]; Enterococcus faecalis, VRE) | MIC ([6]; Enterococcus faecium, E2359) | MIC ([7]; Enterococcus faecium, E7312) | MIC ([8]; ATCC25922, read-out: MIC) | MIC ([10]; read-out: MIC) | MIC ([11]; Streptococcus pneumoniae, 153) | MIC ([12]; read-out: MIC) | MIC ([13]; ATCC27736, read-out: MIC) | MIC ([14]; ATCC13883, read-out: MIC) | other results
1 | CN[C@H](CC(C)C)C(=O)N[C@H]1C(=O)N[C@@H](CC(N)=O)C(=O)N[C@H]2C(=O)N[C@H]3C(=O)N[C@H](C(=O)N[C@H](C(=O)O)c4cc(O)cc(O)c4-c4cc3ccc4O)[C@H](O)c3ccc(c(Cl)c3)Oc3cc2cc(c3O[C@@H]2O[C@H](CO)[C@@H](O)[C@H](O)[C@H]2O[C@H]2C[C@](C)(NCc3ccc(N=C(N)NC/C=C(\C)CCC=C(C)C)cc3)[C@H](O)[C@H](C)O2)Oc2ccc(cc2Cl)[C@H]1O [Compound 14] | 8 µg/mL (≈ 4.62 µM) | >128 µg/mL | + | − |  |  |  |  |  |  |  |  |  |  |  |  |  | MIC ([1]; E. faecium E0341, VanA): 4 µg/mL (≈ 2.31 µM); MIC ([2]; E. faecium E0745, VanA): 1 µg/mL (≈ 0.577 µM); MIC ([3]; E. faecium E2365, VanB): ≤0.008 µg/mL; MIC ([4]; E. faecium E0072, VanA): 0.5 µg/mL (≈ 0.289 µM); MIC ([5]; E. faecalis E1246 VRE (VanA), Table 7): 8 µg/mL (≈ 4.62 µM); MIC ([6]; E. faecium E2359, VanB): ≤0.008 µg/mL; MIC ([7]; E. faecium E7312, VanA): 0.25 µg/mL (≈ 0.144 µM); MIC [8]: >128 µg/mL; MIC [10]: >128 µg/mL; MIC ([11]; S. pneumoniae 153, TSB+0.002% p80+5% lysed horse blood): ≤0.008 µg/mL; MIC [12]: >128 µg/mL; MIC [13]: >128 µg/mL; MIC [14]: >128 µg/mL; bacterial growth after co-incubation with lipid II ([15]; 8×MIC, co-incubation with lipid II): Bacterial growth was visible
2 | CCCCCCCCCCNCCN[C@@]1(C)C[C@H](O[C@H]2[C@H](Oc3c4cc5cc3Oc3ccc(cc3Cl)[C@@H](O)[C@@H](NC(=O)[C@@H](CC(C)C)NC)C(=O)N[C@@H](CC(N)=O)C(=O)N[C@H]5C(=O)N[C@H]3C(=O)N[C@H](C(=O)N[C@H](C(=O)O)c5cc(O)c(CNCP(=O)(O)O)c(O)c5-c5cc3ccc5O)[C@H](O)c3ccc(c(Cl)c3)O4)O[C@H](CO)[C@@H](O)[C@@H]2O)O[C@@H](C)[C@H]1O [Telavancin, reference compound] | 4 µg/mL (≈ 2.28 µM) | > 128 µg/mL | + | − | 8 µg/mL (≈ 4.56 µM) | 4 µg/mL (≈ 2.28 µM) | ≤ 0.008 µg/mL | 2 µg/mL (≈ 1.14 µM) | 4 µg/mL (≈ 2.28 µM) | ≤ 0.008 µg/mL | 2 µg/mL (≈ 1.14 µM) | > 128 µg/mL | > 128 µg/mL | ≤ 0.008 µg/mL | > 128 µg/mL | > 128 µg/mL | > 128 µg/mL | 
3 | CN[C@H](CC(C)C)C(=O)N[C@H]1C(=O)N[C@@H](CC(N)=O)C(=O)N[C@H]2C(=O)N[C@H]3C(=O)N[C@H](C(=O)N[C@H](C(=O)O)c4cc(O)cc(O)c4-c4cc3ccc4O)[C@H](O)c3ccc(c(Cl)c3)Oc3cc2cc(c3O[C@@H]2O[C@H](CO)[C@@H](O)[C@H](O)[C@H]2O[C@H]2C[C@](C)(N)[C@H](O)[C@H](C)O2)Oc2ccc(cc2Cl)[C@H]1O [Vancomycin, reference compound] | >128 µg/mL | > 128 µg/mL | + | − | > 128 µg/mL | > 128 µg/mL | 16 µg/mL (≈ 11 µM) | > 128 µg/mL | > 128 µg/mL | 128 µg/mL (≈ 88.3 µM) | > 128 µg/mL | > 128 µg/mL | > 128 µg/mL | 0.5 µg/mL (≈ 0.345 µM) | > 128 µg/mL | > 128 µg/mL | > 128 µg/mL | 
